Measured values reported in US9566342B2, “Compounds for treatment of heart failure” (SOLVOTRIN INNOVATIONS LIMITED, priority 2010, dated 2017).

Legend:
MMP-2 [1] = target: T1, MMP-2 (Homo sapiens, UniProt P08253); assay: Model of direct enzyme inhibition, MMP-2 (IC50); format: biochemical
T1 sequence (P08253 110-660): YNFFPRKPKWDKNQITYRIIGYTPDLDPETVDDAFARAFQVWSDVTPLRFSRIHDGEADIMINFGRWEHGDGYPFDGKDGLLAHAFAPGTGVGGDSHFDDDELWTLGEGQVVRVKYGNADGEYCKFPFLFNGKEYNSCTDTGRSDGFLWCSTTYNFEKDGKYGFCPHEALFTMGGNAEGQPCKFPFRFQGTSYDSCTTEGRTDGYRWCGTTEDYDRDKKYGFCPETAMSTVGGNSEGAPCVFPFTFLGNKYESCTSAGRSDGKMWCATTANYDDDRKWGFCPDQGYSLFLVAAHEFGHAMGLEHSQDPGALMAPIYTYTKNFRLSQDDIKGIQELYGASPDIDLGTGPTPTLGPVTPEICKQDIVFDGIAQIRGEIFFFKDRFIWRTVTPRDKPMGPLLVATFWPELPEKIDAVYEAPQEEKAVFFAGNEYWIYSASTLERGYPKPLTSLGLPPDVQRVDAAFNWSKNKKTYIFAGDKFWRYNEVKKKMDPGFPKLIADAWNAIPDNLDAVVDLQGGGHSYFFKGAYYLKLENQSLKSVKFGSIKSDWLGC

MMP-8 = MMP-8 (Homo sapiens, UniProt P22894); assay: Direct enzyme inhibition, MMP-8; format: biochemical
human colon cancer cells = assay: Colon cancer cell invasiveness, in vitro model; format: cell-based; conditions: low dose, FIG. 10
MMP-13 = MMP-13 (Homo sapiens, UniProt P45452); assay: Direct enzyme inhibition, MMP-13; format: biochemical
MMP-9 [2] = assay: Total MMP-9 levels on repeated oral administration in non-human primates; format: in vivo, cynomolgus monkeys; conditions: cynomolgus monkey, in vivo, po
MMP-9 [3] = target: MMP-9 (Homo sapiens, UniProt P14780); assay: Model of direct enzyme inhibition, MMP-9 (IC50); format: biochemical
MMP-2 [4] = assay: PMA stimulated breast cancer cell model (HT1080 cells), pro-MMP-2 / MMP-2; format: cell-based
MMP-1 = target: T2, MMP-1 (Homo sapiens, UniProt P03956); assay: Direct enzyme inhibition, MMP-1; format: biochemical
T2 sequence (P03956 100-469): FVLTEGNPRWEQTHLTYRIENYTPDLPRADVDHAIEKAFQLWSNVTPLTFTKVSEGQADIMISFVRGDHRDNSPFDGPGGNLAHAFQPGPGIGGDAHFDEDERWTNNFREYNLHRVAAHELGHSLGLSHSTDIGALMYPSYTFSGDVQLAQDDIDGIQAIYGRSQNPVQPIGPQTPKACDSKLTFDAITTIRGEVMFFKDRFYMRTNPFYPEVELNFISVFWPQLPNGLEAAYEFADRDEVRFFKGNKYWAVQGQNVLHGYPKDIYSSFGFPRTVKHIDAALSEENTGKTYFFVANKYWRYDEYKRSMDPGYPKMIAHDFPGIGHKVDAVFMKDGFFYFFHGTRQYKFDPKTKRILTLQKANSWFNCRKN

MMP-8, sequence (P22894 101-467, species assumed): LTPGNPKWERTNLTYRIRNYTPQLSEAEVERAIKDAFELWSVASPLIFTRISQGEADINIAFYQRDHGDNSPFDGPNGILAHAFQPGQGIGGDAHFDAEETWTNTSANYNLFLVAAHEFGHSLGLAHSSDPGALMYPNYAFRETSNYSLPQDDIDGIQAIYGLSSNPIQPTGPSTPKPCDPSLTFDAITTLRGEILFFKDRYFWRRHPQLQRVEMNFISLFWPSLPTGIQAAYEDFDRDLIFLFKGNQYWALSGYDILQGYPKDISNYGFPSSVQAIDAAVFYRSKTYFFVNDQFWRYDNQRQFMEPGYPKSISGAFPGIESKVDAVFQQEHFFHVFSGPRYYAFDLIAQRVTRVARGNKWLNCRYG
MMP-9 (Homo sapiens, UniProt P14780), sequence (P14780 94-707): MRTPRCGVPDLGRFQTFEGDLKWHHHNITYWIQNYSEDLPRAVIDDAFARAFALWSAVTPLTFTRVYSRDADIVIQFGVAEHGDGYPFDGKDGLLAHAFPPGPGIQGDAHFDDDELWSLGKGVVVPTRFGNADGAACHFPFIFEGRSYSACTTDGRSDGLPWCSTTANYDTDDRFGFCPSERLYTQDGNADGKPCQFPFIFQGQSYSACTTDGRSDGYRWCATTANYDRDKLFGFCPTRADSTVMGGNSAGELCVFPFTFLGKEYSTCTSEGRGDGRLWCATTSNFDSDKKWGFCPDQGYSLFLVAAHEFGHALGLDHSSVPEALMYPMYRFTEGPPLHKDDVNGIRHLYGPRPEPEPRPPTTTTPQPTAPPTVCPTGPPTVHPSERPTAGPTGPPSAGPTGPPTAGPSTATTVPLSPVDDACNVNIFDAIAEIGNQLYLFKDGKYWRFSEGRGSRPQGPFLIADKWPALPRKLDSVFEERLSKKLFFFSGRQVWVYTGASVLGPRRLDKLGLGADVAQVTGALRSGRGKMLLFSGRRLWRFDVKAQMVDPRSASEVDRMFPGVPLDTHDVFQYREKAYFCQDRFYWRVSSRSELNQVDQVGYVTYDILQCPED

Row | Molecule | melting point [°C] | IC50 (MMP-2 [1]) [µM] | MMP-8 inhibition (MMP-8; 10 μM) [%] | MMP-8 inhibition (MMP-8; 100 μM) | colon cancer cell invasiveness (human colon cancer cells) | MMP-13 inhibition (MMP-13; 10 μM) [%] | MMP-13 inhibition (MMP-13; 100 μM) | change in MMP-9 from baseline to 72 hours (MMP-9 [2]) | IC50 (MMP-9 [3]) [µM] | conversion of pro-MMP-2 to active MMP-2 (activation of MMP-2) (MMP-2 [4]) | MMP-1 inhibition (MMP-1; 10 μM) [%] | MMP-1 inhibition (MMP-1; 100 μM)
1 | C[C@H]1c2cccc(O)c2C(=O)C2=C(O)[C@]3(O)C(=O)C(C(=O)NCN4CCC(CO[N+](=O)[O-])CC4)=C(O)[C@@H](N(C)C)[C@@H]3[C@@H](O)[C@@H]21 [Example 7, amido-N-[4-(nitrooxymethyl)piperidinomethyl]-α-6-deoxy-5-oxytetracycline] | 130 to 132 |  |  |  |  |  |  |  |  |  |  | 
2 | Amido-N-[3-(Nitrooxymethyl)Piperidinomethyl]-α-6-Deoxy-5-Oxytetracycline [SI1005] |  | 63 | ~16.9 | around 53.8% | more effective in reducing tumour cell invasiveness | ~6.6 | around 28.4% | significantly reduced compared to doxycycline and SI1004 | 139 | do not appear to activate MMP-2 | ~13 | around 22%
